Patent publication US20220354827A1 (priority 2019, published 2022)
Where two headings read alike, the source gives them in different places.

Key:
[1] = system: ATP-mediated elevation of cytosolic calcium in cells from Alzheimer's disease patients; settings: for peak elevation of [Ca2+]c: ATP 30 μM, percentage of baseline
Procedure: The changes of cytosolic Ca^2+ concentration ([Ca^2+ ]c) of iPSCs after ATP exposure were measured using jellyfish photoprotein aequorin-based probe. 7.5-1.2×10^4 cells were plated on 12 mm coverslips in 24 well plate, grow to 50-60% confluence then transfected with the cyt-Aeq plasmid using Lipofectamine 3000 Transfection Reagent (Thermo Fisher Scientific) according to the manufacturer's instruction. The next day, the transfected cells were incubated with 5 μM coelenterazine for 1 h in modified Krebs-Ringer buffer (in mM: 140 NaCl, 2.8 KCl, 2 MgCl2, 10 Hepes, 11 glucoses, pH 7.4) supplemented with 1 mM CaCl2 and then were transferred to the perfusion chamber. All aequorin measurements were carried out in KRB, anesthetics were added to the same medium as specified. The experiments were performed in a custom-built aequorin recording system. For extracellular Ca^2+ free experiments, Ca^2+ free buffer was used (KRB without Ca^2+ with 5 mM EGTA). The experiments were terminated by lysing the cells with 100 μM digitonin in a hypotonic Ca^2+-rich solution (10 mM CaCl2 in H2O), thus discharging the remaining aequorin pool. The light signal was collected and calibrated into [Ca^2+ ]c values by an algorithm based on the Ca^2+ response curve of aequorin at physiological conditions of pH, [Mg^2+], and ionic strength, as previously described by Filadi R, et al., PNAS 2015; 201504880; Bonora M, et al., Nat Protoc 2013; 8:2105, each of which is incorporated by reference in its entirety.

[2] = system: induced pluripotent stem cells (iPSCs) from Alzheimer's disease (AD) patients; settings: 24 h; for increase of MTT (cell viability): dantrolene 30 μM
Procedure: (§1) Human control (AG02261) and sporadic Alzheimer's disease (AG11414) iPSCs were obtained from John A. Kessler's lab. Familial Alzheimer's disease (GM24675) iPSCs were purchased from Coriell Institute. Each type of iPSC was generated from skin fibroblasts of one heathy human subject or one patient diagnosed of either SAD or FAD. The human pluripotent stem cells were maintained on Matrigel coated plates (BD Biosciences) in mTeSR™1 medium (Catalog #05850, Stem cell Technologies) and were cultured in a 5% CO2 humidified atmosphere at 37° C. The culture medium was changed every day.
The cell viability on different wells in 96-well plates was determined using the MTT (3-(4,5-dimethylthiazol-2-yl)-2,5-diphenyltetrazolium bromide, Sigma-Aldrich, St. Louis, Mo.) reduction assay at 24 h as previously described by Qiao H, et al., Anesthesiology 2017; 127:490; Ren G, et al., Sci Rep 2017; 7:12378, each of which is incorporated by reference in its entirety. After being washed with PBS, the samples were incubated with fresh culture medium containing MTT (0.5 mg/mL in the medium) at 37° C. for 4 h in the dark. The medium was then removed and formazan was solubilized with dimethyl sulfoxide (DMSO). The absorbance was measured at 540 nm with plate reader (Synergy™ H1 microplate reader, BioTek, Winooski, Vt.).

[3] = system: NMDA mediated elevation of cytosolic Ca2+ concentrations in iPSC from AD patients
[4] = system: LC3II in iPSCs from AD patients
Procedure: Western blotting was performed according to the standard procedure. Total protein extracts from iPSCs cells were obtained by lysing the cells in ice-cold lysis buffer (50 mM Tris-HCl, 150 mM NaCl and 1% Triton X-100) in the presence of a cocktail of protease inhibitors, as described by Hollomon, M G, et al., BMC Cancer 2013; 13:500, which is incorporated by reference in its entirety. After centrifugation, the supernatant was collected, and the total protein was quantified using a bicinchoninic acid (BCA) protein assay kit (Thermo Scientific, Rockford, Ill.). Equal amounts of protein for each lane were loaded and separated on 15% sodium dodecyl sulfate-polyacrylamide gel electrophoresis (SDSPAGE).
After electrophoresis, proteins were transferred onto a polyvinylidene fluoride (PVDF) membrane. The membranes were blocked with 5% fat-free milk dissolved in PBS-T for 1 h at room temperature, and then stained with primary antibody at 4° C. overnight. After the wash with PBS-T, the membranes were incubated with secondary antibodies (HRP conjugated anti-rabbit and anti-mouse IgG) at 1:1,000 dilutions, and β-actin served as a loading control. Signals were detected with an enhanced chemiluminescence detection system (Millipore, Billerica, Mass.) and quantified by scanning densitometry.

[5] = mouse, in vivo
[6] = system: induced pluripotent stem cells (iPSCs) from Alzheimer's disease (AD) patients; settings: FAD cells; vs DMSO vehicle
Procedure: as §1

[7] = system: wild type (WT) and 5XFAD (TG) mice; settings: all groups
[8] = intranasal 5 mg/kg, 3 times/wk, 3 weeks; vs vehicle
[9] = all groups, 10 months of age
[10] = system: cortical neurons generated from SAD and FAD patient iPSCs; settings: FAD cells; dantrolene treatment
5XFAD mice = settings: for hippocampus-dependent memory (CFC) vs untreated 5XFAD controls / hippocampus-independent memory (FC-cued) vs controls: 6 months of age
[11] = system: glutamate mediated elevation of mitochondrial calcium concentration in iPSC-derived neurons; settings: FAD neurons; glutamate 20 mM; dantrolene 20 μM pretreatment 1 hour
[12] = system: iPSCs derived immature neurons
[13] = intranasal 5 mg/kg, 3 times/wk, 4 months; vs vehicle
iPSC from AD patients = settings: compared with DMSO
Procedure: As described previously by Ren G, et al., Sci Rep 2017; 7:12378, which is incorporated by reference in its entirety, LysoTracker® Red DND-99 (Molecular Probe, Eugene, Oreg.) probe stock solution was diluted to a working concentration of 50 nM in HBSS+. IPSCs cells were plated on coverslips coated with Matrigel (BD Biosciences) in mTeSR™1 (Catalog #05850). After being washed three times with HBSS+, the cells were loaded with pre-warmed (37° C.) probe containing HBSS+ and incubated for 1 h at 37° C. Fresh medium was added to replace the labeling solution. The cells were observed by a fluorescent microscope fitted with the correct filter set for the probe used, to determine if the cells were sufficiently fluorescent. LysoTracker Red used an […].

[14] = system: cortical neurons generated from SAD and FAD patient iPSCs; settings: dantrolene for 3 days
[15] = system: amyloid plaques in hippocampus and cortex of 5XFAD mice; settings: IN-DAN, SQ-DAN, ETG and LTG
[16] = not given; remark: listed apart in the source
[17] = system: vacuolar-type H+-ATPase (V-ATPase) in lysosomes (LAMP-2) of iPSC; settings: dantrolene 30 μM
[18] = 11 months of age

Nc1ncnc2c1ncn2[C@@H]1O[C@H](COP(=O)(O)OP(=O)(O)OP(=O)(O)O)[C@@H](O)[C@H]1O [ATP, adenosine triphosphate]
peak elevation of [Ca2+]c ([1]; FAD cells): 128.3% | peak elevation of [Ca2+]c ([1]; SAD cells): 140.4% | peak elevation of [Ca2+]c ([1]; control cells): 84.1%

O=C1CN(/N=C/c2ccc(-c3ccc([N+](=O)[O-])cc3)o2)C(O)=N1 [dantrolene]
increase of MTT (cell viability) ([2]; iPSC FAD): 67.6% | increase of MTT (cell viability) ([2]; iPSC SAD): 15.1% | cell viability (MTT) ([2]; iPSCs from healthy human subjects (CON), 30 μM): did not affect | NMDA-mediated elevation of [Ca2+]c and AUC [3]: ameliorated | increase of LC3II level ([4]; FAD iPSCs, P<0.001): 49.4% | increase of LC3II level ([4]; SAD iPSCs, P=0.3483): 47.3% | motor function (rotarod) vs control group [5]: No significant differences | cell proliferation, percentage of BrdU-positive cells [6]: greater proliferation | number of times the animals crossed the platform ([7]; 10 months): no significant differences | percent time in the target quadrant (probe trial) vs controls ([7]; 10 months): no significant differences | escape latency in place trials vs controls ([7]; 10 months of age): no significant differences | olfaction, time to retrieve buried food [8]: No significant differences | olfaction (buried food test) ([9]; 5XFAD): No significant differences | olfaction (buried food test) ([9]; WT): No significant differences | plasma alanine aminotransferase (ALT) activity vs control group (5XFAD, 6-month intranasal treatment in LTG): significantly increased | plasma alanine aminotransferase (ALT) activity vs control group (5XFAD, other treatment groups): No significant differences | plasma alanine aminotransferase (ALT) activity vs control group (WT, 6-month subcutaneous treatment in LTG): significantly increased | plasma alanine aminotransferase (ALT) activity vs control group (WT, other treatment group): No significant difference | PSD95 density [10]: significantly greater | synapsin-1 density [10]: significantly increased | hippocampus-dependent memory (CFC) vs untreated 5XFAD controls (5XFAD mice; IN-DAN, ETG): significantly greater memory | hippocampus-independent memory (FC-cued) vs controls (5XFAD mice; IN-DAN, ETG): significantly improved | hippocampus-dependent memory (CFC) vs 5XFAD controls (5XFAD mice; IN-DAN, ETG, 11 months of age): significantly greater | hippocampus-independent memory (FC-cued) vs 5XFAD CON (5XFAD mice; IN-DAN, ETG, 11 months of age): significantly better | hippocampus-independent memory (FC-cued) vs 5XFAD CON (5XFAD mice; IN-DAN, LTG, 11 months): No significant memory improvement | hippocampus-dependent memory (CFC) vs 5XFAD CON (5XFAD mice; IN-DAN, LTG, 11 months of age): significantly improved | hippocampus-dependent memory (CFC) vs untreated 5XFAD controls (5XFAD mice; SQ-DAN, ETG): significantly greater memory | hippocampus-independent memory (FC-cued) vs controls (5XFAD mice; SQ-DAN, ETG): significantly improved | hippocampus-independent memory (FC-cued) vs 5XFAD CON (5XFAD mice; SQ-DAN, ETG, 11 months of age): trended to improve memory but were not statistically different | hippocampus-independent memory (FC-cued) vs 5XFAD CON (5XFAD mice; SQ-DAN, LTG, 11 months): No significant memory improvement | hippocampus-dependent memory (CFC) vs 5XFAD CON (5XFAD mice; SQ-DAN, LTG, 11 months of age): trended to be better but was not statistically significant | glutamate-induced overall exposure (AUC) of mitochondrial calcium concentration [11]: abolished | glutamate-induced peak elevation of mitochondrial calcium concentration [11]: abolished | glutamate-induced reduction of cytosolic ATP concentration ([12]; neurons derived from AD patients): significantly inhibited | motor function, time spent on the rotarod [13]: No significant differences | lysotracker-positive acidic vesicles (iPSC from AD patients; FAD cells): significantly increased | lysotracker-positive acidic vesicles (iPSC from AD patients; SAD cells): significantly increased | mean number of dendrite intersections at around 150 μM from soma ([14]; FAD cells): significantly greater | mean number of dendrite intersections at around 150 μM from soma ([14]; SAD cells): significantly greater | number of amyloid plaques per area (mm^2) in hippocampus and cortex [15]: No significant differences | percent area of the hippocampus and cortex occupied by plaques ([15]; vs control): No significant differences | bodyweight growth curve ([16]; 5XFAD mice, ETG groups): No significant differences | body weight ([16]; WT, 12 months of age): No significant difference | V-ATPase in lysosomes (LAMP-2) compared with controls ([17]; FAD cells): no longer significantly reduced | V-ATPase in lysosomes (LAMP-2) compared with controls ([17]; SAD cells): remained significantly lower | hepatic pathology (H&E stained sections) ([18]; 5XFAD ETG mice): No gross differences | hepatic pathology (H&E stained sections) ([18]; WT ETG mice): No gross differences | integrated cytosolic Ca2+ (AUC), ATP+Ca2++DAN vs ATP+Ca2+ ([1]; FAD cells, dantrolene 30 μM pretreatment, 1 mM extracellular Ca2+): significantly reduced | ATP-mediated peak or overall elevation of [Ca2+]c ([1]; absence of extracellular Ca2+ influx, SAD/FAD cells, not statistically significant): only trended to inhibit | integrated cytosolic Ca2+ (AUC), ATP+Ca2++DAN vs ATP+Ca2+ ([1]; control cells, dantrolene 30 μM pretreatment, 1 mM extracellular Ca2+): significantly reduced | peak cytosolic [Ca2+]c, ATP+Ca2++DAN ([1]; dantrolene 30 μM pretreatment, 1 mM extracellular Ca2+, between groups): no significant differences

bafilomycin
LC3II level on co-treatment with dantrolene ([4]; SAD and FAD iPSCs, vs dantrolene alone): further elevated

glutamate
cytosolic ATP production ([12]; glutamate 20-30 mM, 24 hours): dose dependently decreased
